The results in this text go back to PubChem BioAssay AID2060494 (Molecular Pharmacology Branch, DTP, NCI, 2025).

For orientation: viability, T/C means the result in the treated group divided by that in the control group, in per cent.
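Also: spheroids exposed to the agents for seven days before readout; percent of vehicle control viability with DMSO wells as 100%.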

The subject of one experiment is 435261-313-R-J1-PDC complex spheroid viability. The experiment can be described thus: Anticancer human tumor 435261-313-R-J1-PDC patient-derived colon adenocarcinoma cell line growth inhibition [GQUAD]. The conditions noted are these: second compound 0.1 µM; first compound 1 µM; stronger effect = lower value. The method, boiled down: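 Multi-cell-type spheroids of tumor cells with HUVEC and mesenchymal stem cells, treated with drug combinations. Concentrations descend in half-log steps from near clinical Cmax, or from 10 microM where Cmax is unknown; viability read-out.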
Regarding `CC1COCCN1c1cc(C2(S(C)(=N)=O)CC2)nc(-c2ccnc3[nH]ccc23)n1` (configuration not stated) + Cc1cnc(CNC(=O)c2c(=O)c3ccc(N4CCCN(C)CC4)nc3n3c2sc2ccccc23)cn1, the viability, T/C is 45.9%.

As to `COc1ccc([C@@H](O)c2cc(-c3ncnc4cc(N5CCOCC5)ccc34)c(F)cc2Cl)nn1` + Cc1cnc(CNC(=O)c2c(=O)c3ccc(N4CCCN(C)CC4)nc3n3c2sc2ccccc23)cn1, the viability, T/C is 41.4%.

The experiment is the same for the next values; noted with them: second compound 0.1 µM; first compound 3.16 µM; stronger effect = lower value.
Regarding `O=C(NO)c1cnc(N2CCN(S(=O)(=O)c3ccc4ccccc4c3)CC2)nc1` + Cc1[nH]c2ccc(F)cc2c1-c1nc2c3cccnc3c3ncccc3c2[nH]1, the viability, T/C is 0.15%.

As for `CC(C)n1c(=O)n(C)c2cnc3cc(F)c(-c4ccc(OCCCN5CCCCC5)nc4)cc3c21` + Cc1cnc(CNC(=O)c2c(=O)c3ccc(N4CCCN(C)CC4)nc3n3c2sc2ccccc23)cn1, the viability, T/C is 60.9%.

Turning to `CC1COCCN1c1cc(-c2ccnn2C)c2ccnc(-c3ccn[nH]3)c2n1` (configuration not stated) + Cc1cnc(CNC(=O)c2c(=O)c3ccc(N4CCCN(C)CC4)nc3n3c2sc2ccccc23)cn1, the viability, T/C was 30.6%.

In the case of `CC1COCCN1c1cc(C2(S(C)(=N)=O)CC2)nc(-c2ccnc3[nH]ccc23)n1` (configuration not stated) + Cc1cnc(CNC(=O)c2c(=O)c3ccc(N4CCCN(C)CC4)nc3n3c2sc2ccccc23)cn1, the viability, T/C is 50.6%.

`COc1ccc([C@@H](O)c2cc(-c3ncnc4cc(N5CCOCC5)ccc34)c(F)cc2Cl)nn1` + Cc1cnc(CNC(=O)c2c(=O)c3ccc(N4CCCN(C)CC4)nc3n3c2sc2ccccc23)cn1: the viability, T/C is 26.3%.

The same experiment, now with this note: second compound 0.1 µM; first compound 10 µM; stronger effect = lower value.
Turning to `O=C(NO)c1cnc(N2CCN(S(=O)(=O)c3ccc4ccccc4c3)CC2)nc1` + Cc1[nH]c2ccc(F)cc2c1-c1nc2c3cccnc3c3ncccc3c2[nH]1, the viability, T/C was 0.1%.

With `CC(C)n1c(=O)n(C)c2cnc3cc(F)c(-c4ccc(OCCCN5CCCCC5)nc4)cc3c21` + Cc1cnc(CNC(=O)c2c(=O)c3ccc(N4CCCN(C)CC4)nc3n3c2sc2ccccc23)cn1, the viability, T/C is 28.6%.

Turning to `CC1COCCN1c1cc(-c2ccnn2C)c2ccnc(-c3ccn[nH]3)c2n1` (configuration not stated) + Cc1cnc(CNC(=O)c2c(=O)c3ccc(N4CCCN(C)CC4)nc3n3c2sc2ccccc23)cn1, the viability, T/C is 21.3%.

Turning to `CC1COCCN1c1cc(C2(S(C)(=N)=O)CC2)nc(-c2ccnc3[nH]ccc23)n1` (configuration not stated) + Cc1cnc(CNC(=O)c2c(=O)c3ccc(N4CCCN(C)CC4)nc3n3c2sc2ccccc23)cn1, the viability, T/C is 38.8%.

Regarding `COc1ccc([C@@H](O)c2cc(-c3ncnc4cc(N5CCOCC5)ccc34)c(F)cc2Cl)nn1` + Cc1cnc(CNC(=O)c2c(=O)c3ccc(N4CCCN(C)CC4)nc3n3c2sc2ccccc23)cn1, the viability, T/C was 16.8%.

Staying with this experiment, now noted: second compound 0.316 µM; first compound 0.0316 µM; stronger effect = lower value.
With `O=C(NO)c1cnc(N2CCN(S(=O)(=O)c3ccc4ccccc4c3)CC2)nc1` + Cc1[nH]c2ccc(F)cc2c1-c1nc2c3cccnc3c3ncccc3c2[nH]1, the viability, T/C is 60.8%.

Turning to `CC(C)n1c(=O)n(C)c2cnc3cc(F)c(-c4ccc(OCCCN5CCCCC5)nc4)cc3c21` + Cc1cnc(CNC(=O)c2c(=O)c3ccc(N4CCCN(C)CC4)nc3n3c2sc2ccccc23)cn1, the viability, T/C is 50.7%.

In the case of `CC1COCCN1c1cc(-c2ccnn2C)c2ccnc(-c3ccn[nH]3)c2n1` (configuration not stated) + Cc1cnc(CNC(=O)c2c(=O)c3ccc(N4CCCN(C)CC4)nc3n3c2sc2ccccc23)cn1, the viability, T/C was 51.8%.

As to `CC1COCCN1c1cc(C2(S(C)(=N)=O)CC2)nc(-c2ccnc3[nH]ccc23)n1` (configuration not stated) + Cc1cnc(CNC(=O)c2c(=O)c3ccc(N4CCCN(C)CC4)nc3n3c2sc2ccccc23)cn1, the viability, T/C is 53.5%.

With `COc1ccc([C@@H](O)c2cc(-c3ncnc4cc(N5CCOCC5)ccc34)c(F)cc2Cl)nn1` + Cc1cnc(CNC(=O)c2c(=O)c3ccc(N4CCCN(C)CC4)nc3n3c2sc2ccccc23)cn1, the viability, T/C was 47.6%.

Staying with this experiment, now noted: second compound 0.316 µM; first compound 0.1 µM; stronger effect = lower value.
Take `O=C(NO)c1cnc(N2CCN(S(=O)(=O)c3ccc4ccccc4c3)CC2)nc1` + Cc1[nH]c2ccc(F)cc2c1-c1nc2c3cccnc3c3ncccc3c2[nH]1: the viability, T/C is 75.7%.

With `CC(C)n1c(=O)n(C)c2cnc3cc(F)c(-c4ccc(OCCCN5CCCCC5)nc4)cc3c21` + Cc1cnc(CNC(=O)c2c(=O)c3ccc(N4CCCN(C)CC4)nc3n3c2sc2ccccc23)cn1, the viability, T/C was 64.7%.

Take `CC1COCCN1c1cc(-c2ccnn2C)c2ccnc(-c3ccn[nH]3)c2n1` (configuration not stated) + Cc1cnc(CNC(=O)c2c(=O)c3ccc(N4CCCN(C)CC4)nc3n3c2sc2ccccc23)cn1: the viability, T/C is 57.6%.

`CC1COCCN1c1cc(C2(S(C)(=N)=O)CC2)nc(-c2ccnc3[nH]ccc23)n1` (configuration not stated) + Cc1cnc(CNC(=O)c2c(=O)c3ccc(N4CCCN(C)CC4)nc3n3c2sc2ccccc23)cn1: the viability, T/C was 55.8%.

With `COc1ccc([C@@H](O)c2cc(-c3ncnc4cc(N5CCOCC5)ccc34)c(F)cc2Cl)nn1` + Cc1cnc(CNC(=O)c2c(=O)c3ccc(N4CCCN(C)CC4)nc3n3c2sc2ccccc23)cn1, the viability, T/C was 60.9%.

Staying with this experiment, now noted: second compound 0.316 µM; first compound 0.316 µM; stronger effect = lower value.
For the compound `O=C(NO)c1cnc(N2CCN(S(=O)(=O)c3ccc4ccccc4c3)CC2)nc1` + Cc1[nH]c2ccc(F)cc2c1-c1nc2c3cccnc3c3ncccc3c2[nH]1, the viability, T/C was 65.5%.

`CC(C)n1c(=O)n(C)c2cnc3cc(F)c(-c4ccc(OCCCN5CCCCC5)nc4)cc3c21` + Cc1cnc(CNC(=O)c2c(=O)c3ccc(N4CCCN(C)CC4)nc3n3c2sc2ccccc23)cn1: the viability, T/C was 52.8%.

For `CC1COCCN1c1cc(-c2ccnn2C)c2ccnc(-c3ccn[nH]3)c2n1` (configuration not stated) + Cc1cnc(CNC(=O)c2c(=O)c3ccc(N4CCCN(C)CC4)nc3n3c2sc2ccccc23)cn1, the viability, T/C was 50.5%.

Consider `CC1COCCN1c1cc(C2(S(C)(=N)=O)CC2)nc(-c2ccnc3[nH]ccc23)n1` (configuration not stated) + Cc1cnc(CNC(=O)c2c(=O)c3ccc(N4CCCN(C)CC4)nc3n3c2sc2ccccc23)cn1, for which the viability, T/C is 60.6%.

Regarding `COc1ccc([C@@H](O)c2cc(-c3ncnc4cc(N5CCOCC5)ccc34)c(F)cc2Cl)nn1` + Cc1cnc(CNC(=O)c2c(=O)c3ccc(N4CCCN(C)CC4)nc3n3c2sc2ccccc23)cn1, the viability, T/C was 44.6%.
